Earlier results, collected in patent US7022342B2, “Controlled release oral dosage form of beta-adrenergic blocking agents” (Andrx Corporation, Inc., priority 2002, dated 2006).

How the values were obtained:
[1] = after oral administration of the conventional tablets

solubility in water: freely soluble | time of peak plasma concentrations [1]: 60 to 90 min
Compound: CC(C)NCC(O)COc1cccc2ccccc12 (centres unmarked) [Propranolol]
